Measured values published in patent US20230212788A1, “NEW METHOD FOR AUTOMATED ON-DEMAND BIOMOLECULAR ARRAY SYNTHESIS” (TECHNISCHE UNIVERSITAT DRESDEN, priority 2020, published 2023).

How the values were obtained:
cyclophilin A (CypA) = cyclophilin A (CypA) (Homo sapiens, UniProt P62937); conditions: array probed by fluorescently labelled CypA, FIG. 11
streptavidin [1] = target: T1, streptavidin (Streptomyces avidinii, UniProt P22629); conditions: order of magnitude only; cited from earlier work
streptavidin [2] = target: T1, streptavidin; experiment: Ligand array probed by fluorescently labelled streptavidin; assay type: binding; conditions: FIG. 10
Excerpt: To increase the coupling yield, each coupling step was repeated two times. Same procedure was used in all amide bond formation reactions. After a capping step using 5% acetic anhydride/2% DIPEA, Fmoc was deprotected by immersing the glass slide in piperidine solution (DMF:ethanol 1:1). All amino groups not in the spotted area were acetylated in the first capping step. Therefore, no amide bond formation would be possible in these area in the following synthesis. The array was then probed by fluorescently labelled streptavidin or CypA (FIGS. 10 and 11). […] At this screening condition, the protein cannot distinguish between pM and low nM binders, while it can distinguish these two strong binders from the weaker µM binder iminobiotin.

L929 cells = experiment: Adhesion of L929 cells to peptides synthesized as array; assay type: cell-based; conditions: array without removing the lipophilic group, FIG. 16
Excerpt: There were synthesized cell adhesive peptide RGDSP (SEQ ID NO: 180) and its mutant GGDSP (SEQ ID NO: 179) as array and investigated their effects on the adhesion to L929 cells. As the chitosan hydrogel coating provides a favorable surface for the adhesion of many types of cells, including L929 cells, the array has been synthesized without removing the lipophilic group. […] (FIG. 16) Therefore, the array technology can be used not only for protein-based high throughput screening, but also for developing novel biomaterials as well as cellular assays.

calcineurin = experiment: Array incubated with fluorescently labelled calcineurin; assay type: binding; conditions: FIG. 13
Description: In order to probe protein-peptide interactions, a peptide was synthesized on the amphiphilic surface. The known calcineurin-binding peptide PVIVIT (SEQ ID NO: 13) and CsA1-COOH were synthesized on the surface. The glass slide was then incubated with fluorescently labelled calcineurin. […] Therefore, the on-demand peptide array synthesis technology can be used to investigate specific protein-peptide interaction.

T1 sequence (P22629 25-183): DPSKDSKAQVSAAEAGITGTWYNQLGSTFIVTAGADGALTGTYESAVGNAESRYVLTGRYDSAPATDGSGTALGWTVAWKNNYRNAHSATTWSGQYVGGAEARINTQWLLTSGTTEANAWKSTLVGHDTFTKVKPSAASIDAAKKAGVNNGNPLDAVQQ
Chain of cyclophilin A (CypA) (P62937 whole entry, species assumed): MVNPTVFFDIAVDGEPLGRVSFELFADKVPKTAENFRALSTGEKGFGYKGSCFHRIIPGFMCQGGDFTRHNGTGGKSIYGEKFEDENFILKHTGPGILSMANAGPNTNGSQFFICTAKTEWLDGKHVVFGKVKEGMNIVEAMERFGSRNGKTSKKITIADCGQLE

Compound	Kd values / dissociation constant to streptavidin (streptavidin [1])	adhesion to L929 cells (L929 cells)	other results
O=C(O)CCCC[C@@H]1SC[C@@H]2NC(=O)N[C@@H]21 [Biotin, biotin]	–	–	binding of CypA to spot (cyclophilin A (CypA)): not
C[C@@H]1NC(=O)N[C@@H]1CCCCCC(=O)O [desthiobiotin]	low nM	–	–
N=C1N[C@H]2[C@H](CS[C@H]2CCCCC(=O)O)N1 [iminobiotin]	µM	–	fluorescent signal on spot (streptavidin [2]): much weaker than those of biotin and desthiobiotin
GGDSP: mutant of cell adhesive peptide RGDSP	–	poor adhesion	–
PVIVIT: known calcineurin-binding peptide PVIVIT	–	–	binding of calcineurin to spot (calcineurin): can bind specifically
RGDSP: cell adhesive peptide RGDSP	–	strong adhesion	–
